What is called IC50 is the concentration at which inhibition is half-maximal. The Ki is a dissociation constant, usually derived from enzyme kinetics or from competition with a known ligand. As a reminder, the inhibition is the drop in the measured response relative to a control, in per cent.

This is an account of results in publication PMC5899049 (ACS infectious diseases, 2017).

Assay [1] deals with P. falciparum, Dd2 strain (MRA-150). To be noted: read-out: P. falciparum growth inhibition IC50; Dd2 (MRA-150) strain; data reported previously; cited from earlier work.
Assay [2] has as its system Escherichia coli IspD (EcIspD). Particulars: concentrations up to 10 μM; cited from earlier work.
Assay [3] has as its system Arabidopsis thaliania IspD. Particulars: concentrations up to 10 μM; cited from earlier work.
Assay [4] concerns P. falciparum (Dd2 strain). Nature of the assay: Cytocidal. Type of assay: cell-based, Plasmodium falciparum. Particulars: LC50 could not be determined.
The next assay concerns the target P. falciparum IspD. Particulars: read-out: P. falciparum IspD Ki; cited from earlier work.
The test system of assay [5] is Mycobacterium tuberculosis IspD. Particulars: concentrations up to 10 μM; cited from earlier work.
The next assay deals with T1, Human IspD (hIspD) (Homo sapiens, UniProt A4D126).
T1 sequence (A4D126 1-451): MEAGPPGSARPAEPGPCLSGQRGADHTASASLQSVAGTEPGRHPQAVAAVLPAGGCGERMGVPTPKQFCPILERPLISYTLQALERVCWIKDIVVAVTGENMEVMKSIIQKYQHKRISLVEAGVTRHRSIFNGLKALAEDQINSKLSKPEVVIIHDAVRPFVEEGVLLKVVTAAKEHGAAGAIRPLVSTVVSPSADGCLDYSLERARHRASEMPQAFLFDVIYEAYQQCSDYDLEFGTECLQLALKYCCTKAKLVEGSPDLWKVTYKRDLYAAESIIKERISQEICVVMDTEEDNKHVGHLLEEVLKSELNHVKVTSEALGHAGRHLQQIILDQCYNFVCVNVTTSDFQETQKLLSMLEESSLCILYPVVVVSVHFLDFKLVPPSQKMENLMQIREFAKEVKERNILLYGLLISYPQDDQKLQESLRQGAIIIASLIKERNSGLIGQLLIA
The assay can be described thus: Human IspD enzymatic assay. The assay is classed as biochemical. To be noted: 2 μM hIspD, 37 °C, 16 h.

Assay [6] has as its system MEP pathway intermediates (CDP-ME, MEcPP, IPP) in P. falciparum schizont stage parasites. Nature of the assay: MEP pathway metabolite profiling by LC-MS/MS. The assay is classed as cell-based, Plasmodium falciparum. To be noted: 1 μM 1a or 7a, 10 μM FOS; for Decrease in cellular levels of Pf IspD product CDP-ME: schizont stage; for Reduction of the IPP levels: 4 h treatment.

In assay [7] the test system is E. coli, strain BL21(DE3). To be noted: 500 μM; NI = no inhibition; data reported previously; cited from earlier work.
Assay [8] relates to P. falciparum, Dd2 strain (MRA-150). The assay can be described thus: P. falciparum growth inhibition. Particulars: Plasmodium falciparum, DD2, 72 h, read-out: IC50 value at 72 h.
Assay [9] concerns E. coli, strain BL21(DE3). Nature of the assay: E. coli growth inhibition assay. The assay is classed as cell-based, Escherichia coli. Particulars: for % E. coli growth inhibition (18 h): NI = no inhibition.
The target in assay [10] is Recombinant P. falciparum IspD (Plasmodium falciparum, UniProt Q8I273). Nature of the assay: Pf IspD enzymatic assay. Type of assay: biochemical. Particulars: for IC50: read-out: PfIspD IC50, measured at 60 nM Pf IspD; for PfIspD % inhibition at 1 μM (1000 nM): 1 μM (1000 nM) compound, 60 nM Pf IspD, NI = no inhibition.
Assay [11] deals with MEP pathway metabolites in parasites starting at ring stage. To be noted: 5 μM FOS for 10 h starting at ring stage; ref 24 (Zhang et al.); cited from earlier work.

Molecules are shown by their SMILES. Converted amounts (≈) assume the structure as drawn. Like-named read-outs stand apart in the source and are kept apart here.

With `O=C(O)[C@@H]1Cc2c([nH]c3ccccc23)[C@@H](c2ccc(Cl)cc2Cl)N1` [1a, (1R,3S)-MMV008138], the values for the half-inhibitory concentration (IC50) in assay [1] and in assay [8] were 250 ± 70 nM and 350 ± 30 nM, respectively. In assay [2], the “Inhibition of Escherichia coli IspD” value is listed as “did not inhibit”. In addition, the “Inhibition of Arabidopsis thaliania IspD” value in assay [3] is recorded as “did not inhibit”. The “Parasite growth at 72 h after wash-out” value in [4] (6 h incubation) and in [4] (12 h incubation) was “grow similarly to untreated controls” in each case. The Ki at P. falciparum IspD was 7 to 13 nM. Further, the “Inhibition of Mycobacterium tuberculosis IspD” value in assay [5] is given as “did not inhibit”. Also, the “Human IspD CDP-ribitol formation” value on Human IspD (hIspD) (20 μM 1a) and on Human IspD (hIspD) (200 μM 1a) was “not inhibited” throughout. In addition, the “Decrease in cellular levels of Pf IspD product CDP-ME” value in assay [6] (2 h exposure) is given as 67 ± 2%; in [6] (4 h exposure), 84 ± 8%. Besides, the “Reduction of the IPP levels” value in assay [6] was > 90%. Further, the “% E. coli growth inhibition (18 h)” value in assay [7] is given as “no effect”.
Regarding `O=C(O)[C@@H]1Cc2c([nH]c3ccccc23)[C@H](c2ccc(Cl)cc2Cl)N1` [5a], in [1], the IC50 was > 10000 nM. For the same compound, the “% E. coli growth inhibition (18 h)” value in [9] (125 μM) is reported as “no effect”.
In the case of `CCNC(=O)C1Cc2c([nH]c3ccccc23)C(c2ccc(Cl)cc2Cl)N1` (stereo not shown) [8a], in [10], the IC50 is ~1000 nM.
For the compound `O=C(O)[C@H]1Cc2c([nH]c3ccccc23)[C@H](c2ccc(Cl)cc2Cl)N1` (single isomer, unassigned; ent-1a) [ent-1a], in assay [1], the IC50 was > 10000 nM. Besides, the “% E. coli growth inhibition (18 h)” value in assay [9] (250 μM) was “no effect”.
On to `COc1ccc(C2NC(C(=O)O)Cc3c2[nH]c2ccccc32)cc1OC` (stereo not shown) [1x], for which, in assay [1], the IC50 was > 20000 nM.
With `O=C(O)[C@H]1Cc2c([nH]c3ccccc23)[C@@H](c2ccc(Cl)cc2Cl)N1` (single isomer, unassigned; ent-5a) [ent-5a], the IC50 in [1] is 3000 ± 200 nM. Moreover, the “PfIspD % inhibition at 1 μM (1000 nM)” value in [10] is recorded as 27 ± 5% inh. @ 1 μM. For the same compound, the “% E. coli growth inhibition (18 h)” value in [9] (250 μM) is listed as 18 ± 6 @ 250 μM %.
As to `Clc1ccc(C2NCCc3c2[nH]c2ccccc32)c(Cl)c1` (stereo not shown) [11a], the “PfIspD % inhibition at 1 μM (1000 nM)” value in assay [10] is 7% inh. @ 1000. Besides, the “% E. coli growth inhibition (18 h)” value in assay [9] (250 μM) is reported as 45 ± 10 @ 250 μM %.
As to `CNC(=O)C1Cc2c([nH]c3ccccc23)C(c2ccc(Br)cc2Cl)N1` (stereo not shown) [7j], the IC50 in assay [10] came to 21 ± 6 nM.
As to `O=CN(O)CCCP(=O)(O)O` [FOS, fosmidomycin, reference compound], in [1], the IC50 is 880 ± 70 nM. Moreover, the “Levels of CDP-ME” value in [11] is “reduced levels”. For the same compound, the inhibition at 10 µM in [10] (read-out: PfIspD % inhibition at 10 μM, 10 μM compound, 60 nM Pf IspD) was ~4%. Also, the MIC in [9] (Escherichia coli, 18 h, read-out: E. coli minimum inhibitory concentration (MIC)) worked out at 11.99 ± 0.02 µM (≈ 2.2 µg/mL). Further, the “Decrease in cellular levels of Pf IspD product CDP-ME” value in assay [6] (2 h exposure) and in [6] (4 h exposure) was “did not cause significant reduction” in each case. The “Reduction of the IPP levels” value in [6] was > 90%.
Regarding `CNC(=O)C1Cc2c([nH]c3ccccc23)C(c2ccc(Cl)cc2Br)N1` (stereo not shown) [7k], the IC50 in [10] was 31 ± 4 nM.
